Measured values published in PMC4490394 (Scientific Reports, 2015).
Substitutions are numbered along the chain they refer to.

What was measured:
testosterone = conditions: ODM-201-treated patients ref 28; cited from earlier work
AR(F876L) = target: T1, AR(F876L) (Homo sapiens, UniProt P10275, F877L)
T1 sequence (P10275 1-920 F877L): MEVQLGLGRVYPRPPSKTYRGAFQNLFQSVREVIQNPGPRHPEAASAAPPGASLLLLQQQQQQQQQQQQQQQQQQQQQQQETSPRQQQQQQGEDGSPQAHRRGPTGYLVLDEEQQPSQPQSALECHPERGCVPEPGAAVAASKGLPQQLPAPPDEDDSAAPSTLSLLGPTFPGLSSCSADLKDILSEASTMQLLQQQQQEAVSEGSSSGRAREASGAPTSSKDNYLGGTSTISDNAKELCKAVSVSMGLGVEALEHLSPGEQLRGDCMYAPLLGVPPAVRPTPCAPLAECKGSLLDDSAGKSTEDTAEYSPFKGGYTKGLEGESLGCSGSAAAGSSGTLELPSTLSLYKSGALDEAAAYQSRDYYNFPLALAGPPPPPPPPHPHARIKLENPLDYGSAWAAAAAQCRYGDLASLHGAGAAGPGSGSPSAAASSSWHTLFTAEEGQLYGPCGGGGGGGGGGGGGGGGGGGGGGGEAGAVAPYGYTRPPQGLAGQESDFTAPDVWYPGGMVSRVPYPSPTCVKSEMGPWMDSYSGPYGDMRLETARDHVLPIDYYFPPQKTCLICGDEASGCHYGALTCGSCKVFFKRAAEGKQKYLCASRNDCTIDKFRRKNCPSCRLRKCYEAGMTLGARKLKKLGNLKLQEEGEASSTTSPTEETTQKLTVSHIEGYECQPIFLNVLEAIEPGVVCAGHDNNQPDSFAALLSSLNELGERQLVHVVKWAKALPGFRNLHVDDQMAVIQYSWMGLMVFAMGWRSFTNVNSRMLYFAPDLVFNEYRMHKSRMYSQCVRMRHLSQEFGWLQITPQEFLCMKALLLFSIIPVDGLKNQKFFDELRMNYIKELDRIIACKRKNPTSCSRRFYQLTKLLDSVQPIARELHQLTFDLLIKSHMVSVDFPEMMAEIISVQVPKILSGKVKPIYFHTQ
Experimental: (§1) For one well in a 96-well plate, 190 ng of reporter construct DNA and 10 ng of receptor construct DNA were diluted in Opti-MEM® (Gibco). […] Luciferase activity was measured as described above.

H1581 lung cancer cells = assay: Viability of AR-negative cells (WST-1); type: cell-based, human; conditions: increasing concentrations, 4 days
serum testosterone = assay: Serum testosterone in intact nude mice bearing orthotopic VCaP tumors; type: in vivo; conditions: 50 mg/kg bid oral, 3 weeks
Experimental: One million VCaP cells in 20 μL of RPMI-1640 medium were orthotopically injected into the dorsal prostate lobes of athymic nude male mice (7 weeks old from Harlan Winkelman, France). Tumor growth was followed by measuring serum PSA (ProStatus™ PSA EQM Kits, Wallac, Finland). […] At autopsy, blood samples were collected by heart puncture, clotted overnight at +4 °C, and centrifuged. For serum testosterone determination, 25-μL aliquots were extracted twice with 2 mL of diethyl ether and evaporated under nitrogen to dryness. The residues were reconstituted in PBS and measured using a standard radioimmunoassay as described previously.

[1] = Pharmacokinetic parameters in mice after 7 days oral dosing; type: in vivo; conditions: male, BALB/c or Balb/cOlaHsd nude, mouse, plasma, 50 mg/kg bid oral
Experimental: Control mice received vehicle. […] Brain samples (without olfactory bulbs and medulla oblongata) from each group and time point were pooled and homogenized before the analysis. […] Plasma and brain concentration vs. time were evaluated by noncompartmental analysis using WinNonlin® Professional v. 5.2 software (Pharsight Corporation). Brain/plasma ratios were calculated based on AUC0–24 values for plasma and brain.

AR(T877A) = target: T2, AR(T877A) (Homo sapiens, UniProt P10275, T878A)
T2 sequence (P10275 1-920 T878A): T1 sequence (P10275 1-920 F877L) with L877F, T878A
Experimental: as §1

PSA = conditions: chemotherapy-naïve CRPC patients, 700 mg twice daily, ARADES study ref 28; cited from earlier work

CC(O)c1cc(C(=O)N[C@@H](C)Cn2ccc(-c3ccc(C#N)c(Cl)c3)n2)[nH]n1 (some centres unmarked) [ODM-201]
serum testosterone levels in treated patients (testosterone): maintained at castrate levels | functional activity (agonist/antagonist) on AR(F876L) (AR(F876L)): full antagonists | effect on viability of H1581 cells (H1581 lung cancer cells): no effect | effect on serum testosterone levels (serum testosterone): did not affect | AUC ([1]; read-out: AUC24): 175 µg·h/mL | half-life ([1]; read-out: T 1/2 (plasma half-life) (converted)): 1.6 h | functional activity (agonist/antagonist) on AR(T877A) (AR(T877A)): full antagonists | PSA response (50% or greater decrease), share of patients (PSA): 86%
